A short description of data set [1]: Metabolic stability in human liver microsomes assessed compound remaining measured after 10 mins in presence of NADPH. The data set is classed as ADME, Microsome. The conditions noted are these: read-out: Stability. For orientation: Liver microsomes are vesicles of endoplasmic reticulum, rich in cytochrome P450 enzymes.
A short description of data set [2]: Antagonist activity at human CXCR4 receptor expressed in CCRF-CEM cells assessed as inhibition of CXCL12-induced calcium release by calcium flux assay. Format: cell-based.
Data set [3] is described as follows: Metabolic stability in rat liver microsomes assessed compound remaining measured after 10 mins in presence of NADPH. The settings on record: read-out: Stability. The data set is classed as ADME, Microsome.
Data set [4] can be described thus: Permeability of compound at pH 5.5 incubated for 4 hrs by PAMPA assay. Format: ADME. The conditions noted are these: read-out: permeability. In general terms: The PAMPA barrier holds no transporters, so it reflects passive diffusion.
The nature of data set [5]: Metabolic stability in mouse liver microsomes assessed compound remaining measured after 10 mins in presence of NADPH. Format: ADME, Microsome. The settings on record: read-out: Stability.
The next data set concerns the target Cytochrome P450 2D6 (Homo sapiens, UniProt P10635). As to the kind of experiment: Inhibition of recombinant human CYP2D6 using AMMC as substrate preincubated for 30 mins followed by substrate addition measured after 45 mins by fluorescence based assay. Format: ADME.
Data set [6] in a line: Permeability of compound at pH 7.4 incubated for 4 hrs by PAMPA assay. The data set is classed as ADME. The conditions noted are these: read-out: permeability.
Data set [7] in a line: Antagonist activity at mAChR (unknown origin) expressed in CCRF-CEM cells assessed as inhibition of calcium release by calcium flux assay. Format: cell-based. The conditions noted are these: Homo sapiens. A general note: A change in cytosolic calcium serves as a functional read-out for many receptors and channels.
The target of a further data set is D(2) dopamine receptor (Homo sapiens, UniProt P14416). As to the kind of experiment: Inhibition of dopamine D2 receptor (unknown origin).
Sequence of D(2) dopamine receptor (P14416 whole entry): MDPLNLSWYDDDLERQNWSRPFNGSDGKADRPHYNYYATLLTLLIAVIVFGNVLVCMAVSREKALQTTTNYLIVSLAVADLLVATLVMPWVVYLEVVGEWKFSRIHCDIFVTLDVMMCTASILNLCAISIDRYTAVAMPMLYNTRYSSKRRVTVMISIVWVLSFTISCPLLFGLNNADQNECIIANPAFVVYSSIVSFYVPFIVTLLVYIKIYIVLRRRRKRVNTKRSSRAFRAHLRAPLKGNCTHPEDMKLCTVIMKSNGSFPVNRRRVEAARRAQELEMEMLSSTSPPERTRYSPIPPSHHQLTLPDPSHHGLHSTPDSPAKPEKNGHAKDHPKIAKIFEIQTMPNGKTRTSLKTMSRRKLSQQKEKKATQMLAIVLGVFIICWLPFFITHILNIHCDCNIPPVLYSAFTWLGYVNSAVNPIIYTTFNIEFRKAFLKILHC
Another data set has as its target Mu-type opioid receptor (Homo sapiens, UniProt P35372). As to the kind of experiment: Inhibition of mu opioid receptor (unknown origin).
Data set [8] has as its target Neuronal acetylcholine receptor subunit alpha-7 (Homo sapiens, UniProt P36544). As to the kind of experiment: Inhibition of alpha7 nicotinic acetylcholine receptor (unknown origin).
For data set [9], the target named is Kappa-type opioid receptor (Homo sapiens, UniProt P41145). The experiment in a line: Inhibition of kappa opioid receptor (unknown origin).
Sequence of Kappa-type opioid receptor (P41145 whole entry): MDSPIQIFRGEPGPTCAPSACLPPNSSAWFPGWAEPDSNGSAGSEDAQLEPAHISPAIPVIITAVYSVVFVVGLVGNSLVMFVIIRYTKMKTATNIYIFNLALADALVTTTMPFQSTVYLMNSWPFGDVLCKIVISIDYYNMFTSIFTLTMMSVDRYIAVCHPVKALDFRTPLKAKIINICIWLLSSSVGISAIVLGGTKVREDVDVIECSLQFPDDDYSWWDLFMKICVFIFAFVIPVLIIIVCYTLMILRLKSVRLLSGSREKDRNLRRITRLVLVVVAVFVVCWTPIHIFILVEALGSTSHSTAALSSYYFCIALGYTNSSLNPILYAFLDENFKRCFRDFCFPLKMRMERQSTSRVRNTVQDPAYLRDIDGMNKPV
In data set [10] the target is T1, Muscarinic acetylcholine receptor M2 (Homo sapiens, UniProt P08172).
T1 sequence (P08172 whole entry): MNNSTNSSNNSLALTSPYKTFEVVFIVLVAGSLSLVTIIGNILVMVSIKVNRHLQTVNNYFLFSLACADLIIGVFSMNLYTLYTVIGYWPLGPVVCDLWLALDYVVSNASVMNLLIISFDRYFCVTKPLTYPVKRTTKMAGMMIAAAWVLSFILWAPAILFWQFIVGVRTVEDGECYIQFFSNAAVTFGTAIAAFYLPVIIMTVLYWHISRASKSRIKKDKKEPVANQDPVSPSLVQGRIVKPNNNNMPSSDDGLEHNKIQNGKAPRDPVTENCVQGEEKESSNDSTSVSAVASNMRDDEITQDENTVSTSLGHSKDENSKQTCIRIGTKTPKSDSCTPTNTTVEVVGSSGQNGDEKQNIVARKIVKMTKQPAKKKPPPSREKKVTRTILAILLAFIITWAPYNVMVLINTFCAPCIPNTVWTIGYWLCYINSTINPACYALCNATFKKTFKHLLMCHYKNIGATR
As to the kind of experiment: Inhibition of M2 mAChR receptor (unknown origin).

Data set [11] concerns the target T2, Alpha-2C adrenergic receptor (Homo sapiens, UniProt P18825).
T2 sequence (P18825 whole entry): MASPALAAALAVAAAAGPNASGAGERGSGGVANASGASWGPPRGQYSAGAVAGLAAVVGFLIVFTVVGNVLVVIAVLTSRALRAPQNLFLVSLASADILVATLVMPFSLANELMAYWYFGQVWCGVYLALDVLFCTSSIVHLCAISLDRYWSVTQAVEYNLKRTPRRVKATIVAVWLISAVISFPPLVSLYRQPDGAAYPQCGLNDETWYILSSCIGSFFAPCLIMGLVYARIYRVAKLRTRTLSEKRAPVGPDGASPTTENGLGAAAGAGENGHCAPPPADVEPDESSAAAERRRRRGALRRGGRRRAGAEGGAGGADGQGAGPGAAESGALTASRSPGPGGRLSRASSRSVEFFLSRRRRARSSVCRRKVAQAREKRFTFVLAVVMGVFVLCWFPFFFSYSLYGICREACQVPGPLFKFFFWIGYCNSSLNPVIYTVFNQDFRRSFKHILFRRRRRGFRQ
The experiment in a line: Inhibition of alpha 2C adrenergic receptor (unknown origin).

Data set [12] addresses Voltage-gated inwardly rectifying potassium channel KCNH2 (Homo sapiens, UniProt Q12809). The experiment in a line: Inhibition of human ERG by [3H]]Astemizole binding assay. Format: toxicity.

SMILES strings stand for the structures.

Sequence of Cytochrome P450 2D6 (P10635 whole entry): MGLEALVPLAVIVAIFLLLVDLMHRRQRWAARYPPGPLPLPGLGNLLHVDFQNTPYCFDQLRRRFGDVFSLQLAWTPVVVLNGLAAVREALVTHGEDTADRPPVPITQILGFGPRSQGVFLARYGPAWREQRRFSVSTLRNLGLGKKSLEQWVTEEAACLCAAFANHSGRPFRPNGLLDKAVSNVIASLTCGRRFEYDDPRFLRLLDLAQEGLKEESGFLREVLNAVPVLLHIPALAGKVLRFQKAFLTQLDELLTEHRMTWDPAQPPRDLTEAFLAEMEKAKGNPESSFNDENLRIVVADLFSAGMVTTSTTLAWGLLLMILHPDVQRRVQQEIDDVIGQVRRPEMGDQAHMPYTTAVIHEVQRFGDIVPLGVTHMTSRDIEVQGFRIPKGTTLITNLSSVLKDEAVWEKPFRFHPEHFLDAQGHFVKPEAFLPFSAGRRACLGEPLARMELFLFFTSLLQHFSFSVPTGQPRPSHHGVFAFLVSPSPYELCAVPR
Sequence of Neuronal acetylcholine receptor subunit alpha-7 (P36544 whole entry): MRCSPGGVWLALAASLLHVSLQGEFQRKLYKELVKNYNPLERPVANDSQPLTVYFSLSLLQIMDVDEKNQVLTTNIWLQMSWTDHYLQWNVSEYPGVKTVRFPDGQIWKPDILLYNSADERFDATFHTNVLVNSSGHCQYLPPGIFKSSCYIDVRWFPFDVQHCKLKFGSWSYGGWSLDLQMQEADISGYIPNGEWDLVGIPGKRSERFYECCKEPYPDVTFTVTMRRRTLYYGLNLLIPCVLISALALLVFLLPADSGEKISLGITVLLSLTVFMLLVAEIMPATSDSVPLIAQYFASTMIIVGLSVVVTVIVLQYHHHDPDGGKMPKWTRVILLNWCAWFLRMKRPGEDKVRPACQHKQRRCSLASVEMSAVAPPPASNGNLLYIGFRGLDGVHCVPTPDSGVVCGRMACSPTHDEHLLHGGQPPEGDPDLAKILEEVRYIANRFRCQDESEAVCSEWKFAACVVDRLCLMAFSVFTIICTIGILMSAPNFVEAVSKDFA
Sequence of Mu-type opioid receptor (P35372 whole entry): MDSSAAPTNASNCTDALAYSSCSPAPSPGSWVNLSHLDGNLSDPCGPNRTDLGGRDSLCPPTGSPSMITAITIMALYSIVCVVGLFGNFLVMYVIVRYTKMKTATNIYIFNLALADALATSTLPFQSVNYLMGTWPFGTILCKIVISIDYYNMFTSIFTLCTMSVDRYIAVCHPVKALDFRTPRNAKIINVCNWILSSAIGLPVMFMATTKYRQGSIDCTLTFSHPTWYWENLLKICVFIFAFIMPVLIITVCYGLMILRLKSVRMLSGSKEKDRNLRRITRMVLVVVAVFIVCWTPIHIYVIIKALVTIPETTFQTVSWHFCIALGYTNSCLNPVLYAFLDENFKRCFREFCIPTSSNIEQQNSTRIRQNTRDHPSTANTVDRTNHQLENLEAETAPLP
Sequence of Voltage-gated inwardly rectifying potassium channel KCNH2 (Q12809 whole entry): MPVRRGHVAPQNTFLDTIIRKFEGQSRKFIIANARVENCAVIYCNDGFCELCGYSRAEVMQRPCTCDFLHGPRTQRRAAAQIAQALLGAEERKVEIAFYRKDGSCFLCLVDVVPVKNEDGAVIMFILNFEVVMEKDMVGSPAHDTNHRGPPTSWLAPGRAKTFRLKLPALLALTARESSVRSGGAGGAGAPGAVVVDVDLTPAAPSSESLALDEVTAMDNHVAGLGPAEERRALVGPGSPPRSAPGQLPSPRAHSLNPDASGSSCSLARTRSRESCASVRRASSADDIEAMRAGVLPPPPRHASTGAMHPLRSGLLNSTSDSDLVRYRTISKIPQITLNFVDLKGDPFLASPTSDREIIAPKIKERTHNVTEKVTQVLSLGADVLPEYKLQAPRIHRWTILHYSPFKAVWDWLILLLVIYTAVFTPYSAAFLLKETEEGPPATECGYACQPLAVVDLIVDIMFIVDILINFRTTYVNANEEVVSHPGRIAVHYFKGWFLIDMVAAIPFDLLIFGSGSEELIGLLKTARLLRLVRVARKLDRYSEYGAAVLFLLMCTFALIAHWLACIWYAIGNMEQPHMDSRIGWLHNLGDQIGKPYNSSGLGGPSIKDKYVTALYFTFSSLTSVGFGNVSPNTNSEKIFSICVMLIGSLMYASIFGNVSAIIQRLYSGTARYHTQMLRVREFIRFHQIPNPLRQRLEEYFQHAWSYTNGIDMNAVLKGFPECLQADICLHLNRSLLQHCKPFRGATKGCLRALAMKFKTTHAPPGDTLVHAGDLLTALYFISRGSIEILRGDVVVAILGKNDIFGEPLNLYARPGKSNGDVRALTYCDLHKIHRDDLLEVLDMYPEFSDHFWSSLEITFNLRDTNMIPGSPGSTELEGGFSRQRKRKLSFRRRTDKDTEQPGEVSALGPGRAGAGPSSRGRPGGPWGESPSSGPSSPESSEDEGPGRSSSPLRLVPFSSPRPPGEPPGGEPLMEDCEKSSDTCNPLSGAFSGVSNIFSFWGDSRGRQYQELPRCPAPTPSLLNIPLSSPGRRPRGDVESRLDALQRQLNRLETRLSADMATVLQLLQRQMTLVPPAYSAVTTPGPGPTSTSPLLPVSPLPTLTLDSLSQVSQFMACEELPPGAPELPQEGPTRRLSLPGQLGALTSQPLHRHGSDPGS

For orientation: IC50 means the concentration that gives 50% inhibition. As to `NC/C=C/CN(C[C@H]1Cc2ncccc2CN1)[C@H]1CCCc2cccnc21`, the values for the remaining at 10 min in data set [1], in data set [3] and in [5] were 85%, 11% and 37%, respectively. The IC50 is 0.15 µM in data set [2], 0.7 µM on Cytochrome P450 2D6 and 28 µM in data set [7]. Further, the Papp at 4 h amounted to 0.2 ×10⁻⁶ cm/s in data set [4] and 1.5 ×10⁻⁶ cm/s in data set [6].
Turning to `CN(C[C@@H]1Cc2ncccc2CN1)[C@H]1CCCc2cccnc21`, the remaining at 10 min in data set [1] was 100%; in data set [3], 1%; in data set [5], 0%. The 50% inhibitory concentration (IC50) in data set [2] is > 33 µM; on Cytochrome P450 2D6 it was 2.7 µM; in data set [7], < 17 µM. Also, the Papp at 4 h in [4] came to 23 ×10⁻⁶ cm/s; in [6] it was 100 ×10⁻⁶ cm/s.
Regarding `c1cnc2c(c1)CN[C@@H](CN(CCCC1CCNCC1)[C@H]1CCCc3cccnc31)C2`, the values for the remaining at 10 min in data set [1], in [3] and in [5] were 100%, 40% and 69%, respectively. Besides, the half-inhibitory concentration (IC50) in data set [2] was 0.035 µM; at D(2) dopamine receptor, 9.8 µM; at Mu-type opioid receptor, > 30 µM; at Cytochrome P450 2D6 it was > 20 µM; in [8], 17 µM; in data set [9], 4.8 µM. Besides, the IC50 in data set [10] is > 30 µM; in data set [11] it was 2.2 µM; in data set [12] it was 9.3 µM; in data set [7] it was > 33 µM. The Papp at 4 h in data set [4] turned out to be 1.4 ×10⁻⁶ cm/s; in [6] it was 2.4 ×10⁻⁶ cm/s.
As to `CN(C)CCCCN(C[C@H]1Cc2ncccc2CN1)[C@H]1CCCc2cccnc21`, the remaining at 10 min was 100% in [1], 27% in [3] and 55% in data set [5]. Moreover, the concentration for half-maximal inhibition (IC50) in [2] is 0.27 µM; at Cytochrome P450 2D6, 10 µM; in data set [7], > 17 µM. Moreover, the Papp at 4 h in data set [4] is 0.2 ×10⁻⁶ cm/s; in data set [6], 24 ×10⁻⁶ cm/s.
On to `CCN(CC)CCCCN(C[C@H]1Cc2ncccc2CN1)[C@H]1CCCc2cccnc21`, for which the remaining at 10 min was 80% in [1], 6% in data set [3] and 1% in [5]. Further, the IC50 in [2] is 0.39 µM; at Cytochrome P450 2D6 it was 10 µM; in data set [7] it was > 17 µM. The Papp at 4 h in data set [4] came to 0.3 ×10⁻⁶ cm/s; in data set [6] it was 24 ×10⁻⁶ cm/s.
For the molecule `NCCCCN(C[C@H]1Cc2ccccc2CN1)[C@H]1CCCc2cccnc21`, the 50% inhibitory concentration (IC50) at D(2) dopamine receptor is 5.7 µM; in [8], > 30 µM; in [9] it was 1.6 µM; in data set [11] it was 23 µM; in data set [7], < 30 µM. For the same molecule, in [4], the Papp at 4 h came to 0.6 ×10⁻⁶ cm/s.
Regarding `NC(=O)NCCCCN(C[C@H]1Cc2ncccc2CN1)[C@H]1CCCc2cccnc21`, the remaining at 10 min came to 91% in data set [1], 1% in data set [3] and 32% in [5]. The results for the IC50 (in data set [2]; at Cytochrome P450 2D6; in data set [7]) were 0.93 µM, 13 µM and > 17 µM, respectively. Moreover, the Papp at 4 h was 0.7 ×10⁻⁶ cm/s in [4] and 0.2 ×10⁻⁶ cm/s in data set [6].
As for `NC(=O)NC/C=C\CN(C[C@H]1Cc2ncccc2CN1)[C@H]1CCCc2cccnc21`, the remaining at 10 min in [1] stood at 100%; in data set [3], 1%; in data set [5], 10%. Also, the IC50 in data set [2] was 0.46 µM; at Cytochrome P450 2D6, 20 µM; in data set [7], > 17 µM. The results for the Papp at 4 h in [4] and in data set [6] were 0.5 ×10⁻⁶ cm/s and 0.2 ×10⁻⁶ cm/s, respectively.
In the case of `NCc1ccc(CN(C[C@H]2Cc3ncccc3CN2)[C@H]2CCCc3cccnc32)cc1`, the remaining at 10 min in data set [1] turned out to be 100%; in [3], 78%; in [5], 53%. Further, the half-inhibitory concentration (IC50) in [2] amounted to 0.11 µM; at Cytochrome P450 2D6 it was 2.7 µM; in data set [7] it was 26 µM. Further, the values for the Papp at 4 h in [4] and in data set [6] were 2 ×10⁻⁶ cm/s and 6.9 ×10⁻⁶ cm/s, respectively.
Regarding `c1cnc2c(c1)CN[C@@H](CN(CCCCN(C1COC1)C1COC1)[C@H]1CCCc3cccnc31)C2`, the remaining at 10 min was determined as 62% in data set [1], 72% in data set [3] and 33% in data set [5]. Further, the concentration for half-maximal inhibition (IC50) is 3 µM in [2], > 20 µM at Cytochrome P450 2D6 and > 33 µM in [7]. The Papp at 4 h turned out to be 6.2 ×10⁻⁶ cm/s in [4] and 32 ×10⁻⁶ cm/s in data set [6].
On to `NC/C=C\CN(C[C@H]1Cc2ncccc2CN1)[C@H]1CCCc2cccnc21`, for which the values for the remaining at 10 min in data set [1], in data set [3] and in [5] were 85%, 11% and 37%, respectively. Besides, the figures for the IC50 (in data set [2]; on Cytochrome P450 2D6; in data set [7]) were 0.026 µM, 13 µM and 0.18 µM, respectively. Moreover, the values for the Papp at 4 h in [4] and in data set [6] were 2.8 ×10⁻⁶ cm/s and 6.8 ×10⁻⁶ cm/s, respectively.
In the case of `NCCCCN(C[C@@H]1Cc2nccnc2CN1)[C@H]1CCCc2cccnc21`, the remaining at 10 min in [1] came out at 87%; in data set [3], 67%; in [5] it was 73%. Further, the 50% inhibitory concentration (IC50) in data set [2] was 0.13 µM; at Cytochrome P450 2D6, > 20 µM. For the same molecule, the Papp at 4 h in data set [4] and in data set [6] was 0.2 ×10⁻⁶ cm/s in each case.
As for `CN(C[C@H]1Cc2ncccc2CN1)[C@H]1CCCc2cccnc21`, the remaining at 10 min turned out to be 95% in data set [1], 7% in [3] and 53% in data set [5]. Moreover, the IC50 is 0.48 µM in data set [2], 2.8 µM at Cytochrome P450 2D6 and < 17 µM in data set [7]. The results for the Papp at 4 h in [4] and in data set [6] were 46 ×10⁻⁶ cm/s and 130 ×10⁻⁶ cm/s, respectively.
With `NCCCCN(C[C@@H]1Cc2cccnc2CN1)[C@H]1CCCc2cccnc21`, the remaining at 10 min in data set [1] came out at 92%; in data set [3], 37%; in data set [5], 25%. The results for the half-maximal inhibitory concentration (IC50) (in [2]; on Cytochrome P450 2D6) were 0.22 µM and 4.4 µM, respectively. Further, the Papp at 4 h in data set [6] amounted to 7.7 ×10⁻⁶ cm/s.
Regarding `NCCCCN(C[C@@H]1Cc2ncccc2CN1)[C@H]1CCCc2cccnc21`, the values for the remaining at 10 min in data set [1], in data set [3] and in data set [5] were 98%, 55% and 75%, respectively. Moreover, the IC50 in [2] stood at 0.55 µM; at Cytochrome P450 2D6, 9.7 µM. In addition, the values for the Papp at 4 h in data set [4] and in data set [6] were 0.2 ×10⁻⁶ cm/s and 0.7 ×10⁻⁶ cm/s, respectively.
With `NCCCCN(C[C@H]1Cc2nccnc2CN1)[C@H]1CCCc2cccnc21`, the remaining at 10 min in data set [1] came to 84%; in [3], 50%; in data set [5], 77%. Moreover, the IC50 in [2] is 0.042 µM; on Cytochrome P450 2D6, > 20 µM; in [7], < 33 µM. The Papp at 4 h in data set [4] and in data set [6] was 0.2 ×10⁻⁶ cm/s in each case.
On to `FC1(F)CCC(NCCCCN(C[C@H]2Cc3ncccc3CN2)[C@H]2CCCc3cccnc32)CC1`, for which the values for the remaining at 10 min in data set [1], in [3] and in [5] were 88%, 10% and 47%, respectively. The IC50 in data set [2] is 0.029 µM; at Cytochrome P450 2D6, 15 µM; in data set [7], 31 µM. For the same molecule, the Papp at 4 h in data set [6] came to 5.2 ×10⁻⁶ cm/s.
Take `NC(=O)NC/C=C/CN(C[C@H]1Cc2ncccc2CN1)[C@H]1CCCc2cccnc21`: the remaining at 10 min was found to be 93% in [1], 1% in data set [3] and 19% in data set [5]. Also, the IC50 was 0.43 µM in data set [2], 18 µM on Cytochrome P450 2D6 and > 17 µM in [7]. In addition, the Papp at 4 h in data set [4] turned out to be 0.6 ×10⁻⁶ cm/s; in [6], 0.2 ×10⁻⁶ cm/s.
